Where a name gives a salt, the structure may show the parent alone.
test system: alternative splicing of a specific gene (GFP/RFP reporter); test: Compound screen with GFP/RFP alternative splicing reporter; format: cell-based; settings: not given
Excerpt: Strategy of a method for testing whether or not a compound to be tested affects an alternative splicing of a specific gene in a mammalian multicelluar organism is shown in FIG. 14.
The reporter proteins used for the method are GFP and FRP.

Compared with `CCOC(=O)[C@H](CCc1ccccc1)N[C@@H](C)C(=O)N1Cc2ccccc2C[C@H]1C(=O)O` (racemic) [Quinapril HCl], `C[C@@](Cc1ccc(O)c(O)c1)(NN)C(=O)O` [Carbidopa] is higher in Number of cells: 3149 for the first, 3470 for the second.

Compared with `O=NN(CCCl)C(=O)NC1CCCCC1` (racemic) [Lomustine], `CC1=C(/C=C/C(C)=C/C=C/C(C)=C/C(=O)O)C(C)(C)CCC1` [Retinoic acid] is higher in Number of cells: 1241 for the first, 2697 for the second.

Going from `CCN(CC)CCCC(C)Nc1c2ccc(Cl)cc2nc2ccc(OC)cc12.Cl.Cl.O.O` (stereo not drawn) [Quinacrine 2HCl dihydrate] to `C[C@@H](O[C@H]1OCCN(Cc2n[nH]c(=O)[nH]2)[C@H]1c1ccc(F)cc1)c1cc(C(F)(F)F)cc(C(F)(F)F)c1` (racemic) [Aprepitant], the Number of cells rises from 5 to 2165.

First: Cl.Cl.O=C1c2c(O)ccc(O)c2C(=O)c2c(NCCNCCO)ccc(NCCNCCO)c21 [Mitoxantrone 2HCl]
Second: C[C@]12CCC(=O)C=C1CC[C@@H]1[C@@H]2[C@@H](O)C[C@@]2(C)[C@H]1CC[C@]2(O)C(=O)CO (racemic) [Hydrocortisone]
The Number of cells of the first is lower: 31 for the first, 3105 for the second.

Going from `Cc1ccc(-c2cc(C(F)(F)F)nn2-c2ccc(S(N)(=O)=O)cc2)cc1` (racemic) [Celecoxib] to Salbutamol sulfate, the Number of cells rises from 3060 to 4053.

Going from `Cl.O=C(O)c1cn(-c2ccc(F)cc2)c2cc(N3CCNCC3)c(F)cc2c1=O` [Satafloxacin HCl] to `CCc1nn(CCCN2CCN(c3cccc(Cl)c3)CC2)c(=O)n1CCOc1ccccc1` (racemic) [Nefazodone], the Number of cells falls from 3105 to 2966.

Compared with `NC1CCN(c2nc3c(cc2F)c(=O)c(C(=O)O)cn3-c2ccc(F)cc2F)C1` (racemic) [Tosufloxacin], `COc1cc2c(cc1OC)-c1c/c(=N\c3c(C)cc(C)cc3C)n(C)c(=O)n1CC2` [Trequinsin] is higher in Number of cells: 2590 for the first, 3009 for the second.

First: C=C1/C(=C\C=C2/CCC[C@]3(C)[C@@H]([C@H](C)CCCC(C)C)CC[C@@H]23)C[C@@H](O)C[C@@H]1O (racemic) [Alfacalcidol]
Second: CC(C)CN(C[C@@H](O)[C@H](Cc1ccccc1)NC(=O)O[C@H]1CCOC1)S(=O)(=O)c1ccc(N)cc1 (racemic) [Amprenavir]
The Number of cells of the first is lower: 861 for the first, 2564 for the second.

For `O=P1(N(CCCl)CCCl)NCCCO1` (stereo not drawn) [Cyclophosphamide monohydrate], the “cell count per well (c9; column head not printed in these continuation tables, meaning inferred)” value was 3065.

With `O=C1[O][Pt]2([NH][C@@H]3CCCC[C@H]3[NH]2)[O]C1=O` [Oxaliplatin] the “GFP/RFP (Ctrl = 1)” value was 2.271.

In the case of `N[C@@H]1C[C@H]1c1ccccc1` (racemic) [Tranylcypromine], the “ratio in column 11 (head not shown in this continuation table; table sorted by it in descending order; apparently GFP/RFP reporter ratio)” value is reported as 0.7492.

In the case of `CC1(C)S[C@@H]2[C@H](NC(=O)COc3ccccc3)C(=O)N2[C@H]1C(=O)[O-].[K+]` [Pencillin v potassium], the “reporter fluorescence ratio, GFP/RFP (c11; column head not printed in these continuation tables, table sorted descending by it)” value is reported as 1.134.

With `CCCC(=O)OCC[N+](C)(C)C.[Cl-]` [Butyrylcholine Cl] the “count per well with compound (column 9, head not shown; probably cell number; c10 = plate reference)” value was 4016.

`CCCC(=O)OCC[N+](C)(C)C.[Cl-]` [Butyrylcholine Cl] was tested, and the “reporter fluorescence ratio relative to control (last column of Table 4, head not shown; table sorted by this value)” value was 1.016.

same assay, conditions: 50 ng/mL

First: Clc1ccc(COC(Cn2ccnc2)c2ccc(Cl)cc2Cl)c(Cl)c1 (racemic) [Miconazole]
Second: Clc1ccc(C(Cn2ccnc2)OCc2csc3c(Cl)cccc23)c(Cl)c1 (racemic) [Sertaconazole]
The Number of cells of the first is lower: 808 for the first, 1863 for the second.

Going from `Clc1ccc(CO/N=C(\Cn2ccnc2)c2ccc(Cl)cc2Cl)c(Cl)c1` (racemic) [Oxiconazole nitrate] to `CCC(C)n1ncn(-c2ccc(N3CCN(c4ccc(OCC5COC(Cn6cncn6)(c6ccc(Cl)cc6Cl)O5)cc4)CC3)cc2)c1=O` (racemic) [Itraconazole], the Number of cells falls from 2732 to 344.

Compared with `CC(C)Cn1cnc2c(N)nc3ccccc3c21` (racemic) [Imiquimod], `COC(=O)Nc1nc2ccc(Sc3ccccc3)cc2[nH]1` (racemic) [Fenbendazole] is lower in Number of cells: 1944 for the first, 278 for the second.

First: CC(C)(C)NCC(O)c1ccccc1Cl (racemic) [Tulobuterol]
Second: CN1C(C(=O)Nc2ccccn2)=C(O)c2sccc2S1(=O)=O (racemic) [Tenoxicam]
The Number of cells of the first is higher: 3489 for the first, 2916 for the second.

Compared with `CC[C@@]1(O)C(=O)OCc2c1cc1n(c2=O)Cc2cc3c(CN(C)C)c(O)ccc3nc2-1` (racemic) [Topotecan], `COc1cccc2c1C(=O)c1c(O)c3c(c(O)c1C2=O)C[C@@](O)(C(=O)CO)C[C@@H]3O[C@H]1C[C@H](N)[C@H](O)[C@H](C)O1` [Doxorubicin HCl] is lower in Number of cells: 259 for the first, 18 for the second.

Compared with `CC(C(=O)O)c1ccc2c(c1)Cc1cccnc1O2` (racemic) [Pranoprofen], `Cc1oncc1C(=O)Nc1ccc(C(F)(F)F)cc1` (racemic) [Leflunomide] is lower in Number of cells: 3050 for the first, 1963 for the second.

First: O=c1[nH]c(=O)n([C@H]2C[C@H](O)[C@@H](CO)O2)cc1I (racemic) [Idoxuridine]
Second: Nc1ccn([C@@H]2O[C@H](CO)[C@@H](O)[C@@H]2O)c(=O)n1 (racemic) [Cytarabine]
The Number of cells of the first is higher: 1924 for the first, 48 for the second.

Compared with `N=c1ccn2c(n1)O[C@H]1[C@H](O)[C@@H](CO)O[C@H]12` (racemic) [Cyclocytidine HCl], `COc1cc2nc(N3CCN(C(=O)C4CCCO4)CC3)nc(N)c2cc1OC` (racemic) [Terazosin HCl] is higher in Number of cells: 73 for the first, 3112 for the second.

First: CN(C)CCOc1ccc(/C(=C(/CCCl)c2ccccc2)c2ccccc2)cc1 (racemic) [Toremifene]
Second: CCN(CC)CCOc1ccc(C(=C(Cl)c2ccccc2)c2ccccc2)cc1 (racemic) [Clomiphene citrate]
The Number of cells of the first is higher: 250 for the first, 95 for the second.

Compared with `Cc1coc2c1C(=O)C(=O)c1c-2ccc2c1CCCC2(C)C` [Tanshinone iia], `N=C(N)c1ccc(OCCCCCOc2ccc(C(=N)N)cc2)cc1` [Pentamidine] is higher in Number of cells: 2210 for the first, 2694 for the second.

With `CCN(CC)C(=S)SSC(=S)N(CC)CC` (racemic) [Disulfiram] the Number of cells was 31.

same assay, conditions: cell count after compound at final conc.; Ctrl number of cells 4303-5627

Going from `CO[C@H]1C[C@@H]2CC[C@@H](C)[C@@](O)(O2)C(=O)C(=O)N2CCCC[C@H]2C(=O)O[C@H]([C@H](C)C[C@@H]2CC[C@@H](O)[C@H](OC)C2)CC(=O)[C@H](C)/C=C(\C)[C@@H](O)[C@@H](OC)C(=O)[C@H](C)C[C@H](C)/C=C/C=C/C=C/1C` [Rapamycin] to `COc1ccc(C2CNC(=O)C2)cc1OC1CCCC1` (stereo not drawn) [Rolipram], the Number of cells rises from 2046 to 2878.

First: O=C(O)CCCc1ccc(N(CCCl)CCCl)cc1 (racemic) [Chlorambucil]
Second: COc1cc(CNC(=O)CCCC/C=C/C(C)C)ccc1O [Capsaicin]
The Number of cells of the first is lower: 841 for the first, 1918 for the second.

Compared with `COc1ccc2c(c1)[nH]c1c(C)nccc12` [Harmine], `COc1ccnc(C[S+]([O-])c2nc3ccc(OC(F)F)cc3[nH]2)c1OC` (racemic) [Pantoprazole] is higher in Number of cells: 537 for the first, 3112 for the second.

First: C[N+](C)(C)CCOC(=O)CCC(=O)OCC[N+](C)(C)C (racemic) [Succinylcholine]
Second: COC(=O)N/N=C/c1c[n+]([O-])c2ccccc2[n+]1[O-] (racemic) [Carbadox]
The Number of cells of the first is higher: 2727 for the first, 2293 for the second.

First: O=C1[O][Pt]2([NH][C@@H]3CCCC[C@H]3[NH]2)[O]C1=O [Oxaliplatin]
Second: Cc1nc(C)c(Cl)c(O)c1Cl (racemic) [Clopidol]
The Number of cells of the first is lower: 825 for the first, 3230 for the second.

same assay, conditions: reporter ratio relative to control = 1; final conc. per compound (μM, 50 ng/mL)

Going from `CCN(CC)CCCC(C)Nc1c2ccc(Cl)cc2nc2ccc(OC)cc12.Cl.Cl.O.O` (stereo not drawn) [Quinacrine 2HCl dihydrate] to `Cl.Cl.O=C1c2c(O)ccc(O)c2C(=O)c2c(NCCNCCO)ccc(NCCNCCO)c21` [Mitoxantrone 2HCl], the “GFP/RFP (Ctrl = 1)” value falls from 3.153 to 2.651.

Compared with Salbutamol sulfate, `Cl.O=C(O)c1cn(-c2ccc(F)cc2)c2cc(N3CCNCC3)c(F)cc2c1=O` [Satafloxacin HCl] is higher in “GFP/RFP (Ctrl = 1)” value: 1.295 for the first, 1.341 for the second.

— patent US9273364B2 (Kyoto University, priority 2010, dated 2016)
